Assay results taken from patent US12377060B2, “Methods and compositions for preventing or treating tissue calcification” (Epizon Pharma, Inc., priority 2018, dated 2025).

Assays:
[1] = system: ESRD subjects on stable hemodialysis; experiment: Example 1: contemplated administration of MK-7 and/or MKH2-7 to ESRD subjects on stable hemodialysis, biomarkers of tissue calcification; type: in vivo, human; details: 10 mg, 25 mg or 50 mg once daily orally
Description: This example describes the administration of MK-7 and/or MKH2-7 to a subject with ESRD and/or on stable hemodialysis. It is contemplated that administration of MK-7 and/or MKH2-7 will result in a change in aortic compliance (via plethysmography), vascular calcification and certain biomarker levels indicative of slowing the progression of, arresting, or reversing tissue calcification.
ESRD subjects on stable hemodialysis orally receive MK-7 and/or MKH2-7 at 10 mg, 25 mg or 50 mg once daily for least 2 weeks, 4 weeks, 6 weeks, 8 weeks, 3 months, 6 months, 1 year, or indefinitely. The dosage form is a 10 mg or 25 mg soft-gel capsule. Two 25 mg capsules are administered once daily to the 50 mg dosage cohort.
Coronary arterial calcium scores (CAC) are used to estimate the extent of calcification of thoracic arteries. A high CAC score is indicative of calcification, and treatment has the aim of arresting the long term increase in CAC score, or reversing it, or slowing the rate of increase. Aortic plethysmography also is used to measure arterial compliance, which decreases as calcification increases. Pulse wave velocity (PWV) also is measured to assess arterial compliance. The foregoing measures are useful in estimating the utility of treatments intended to prevent, slow the progression of, arrest or reverse vascular calcification. These measurements are used pre- and post-treatment with MK-7 and/or MKH2-7 to assess treatment value.
Further, several biomarkers are assessed to determine the efficacy of MK-7 and/or MKH2-7 at the three dose levels. Exemplary biomarkers include PIVKA-II; uncarboxylated and total Matrix Gla Protein (MGP); uncarboxylated, carboxylated and total osteocalcin protein; uncarboxylated, carboxylated and total Protein C, osteoprotegerin, Fetuin A, and hs-CRP. Blood samples are obtained to measure the biomarkers, most conveniently during patient visits for hemodialysis.
It is contemplated that administration of MK-7 and/or MKH2-7 can result in (i) an increase in […], osteoprotegerin, or Fetuin A, which is indicative of slowing the progression of, arresting or reversing tissue calcification, (ii) a decrease in uncarboxylated MGP, uncarboxylated osteocalcin, and/or uncarboxylated Protein C, which is indicative of slowing the progression of, arresting or reversing tissue calcification, and/or (iii) a decrease in hs-CRP, which is indicative of slowing the progression of, arresting or reversing tissue calcification and/or reduced inflammation.
It is contemplated that, following the daily administration of 10 mg, 25 mg or 50 mg MK-7 and/or MKH2-7, at least one of PIVKA-II, under-carboxylated Matrix Gla Protein (MGP), uncarboxylated osteocalcin protein, uncarboxylated Protein C, osteoprotegerin, Fetuin A, and hs-CRP will show a change indicative of slowing the progression of, arresting or reversing tissue calcification.

osteocalcin = details: 100-200 μg/d for 4 to 12 weeks; cited from earlier work

SMILES | change in Fetuin A [1] | change in hs-CRP [1] | change in osteoprotegerin [1] | change in uncarboxylated MGP [1] | change in uncarboxylated Protein C [1] | change in uncarboxylated osteocalcin [1] | ratio of carboxylated to undercarboxylated osteocalcin (osteocalcin)
CC(C)=CCC/C(C)=C/CC/C(C)=C/CC/C(C)=C/CC/C(C)=C/CC/C(C)=C/CC/C(C)=C/CC1=C(C)C(=O)c2ccccc2C1=O [MK-7, 2-[(2E,6E,10E,14E,18E,22E)-3,7,11,15,19,23,27-heptamethyloctacosa-2,6,10,14,18,22,26-heptaenyl]-3-methylnaphthalene-1,4-dione] | increase | decrease | increase | decrease | decrease | decrease | significantly and in a dose-dependent manner
CC(C)=CCC/C(C)=C/CC/C(C)=C/CC/C(C)=C/CC/C(C)=C/CC/C(C)=C/CC/C(C)=C/Cc1c(C)c(O)c2ccccc2c1O [MKH2-7, 2-[(2E,6E,10E,14E,18E,22E)-3,7,11,15,19,23,27-heptamethyloctacosa-2,6,10,14,18,22,26-heptaenyl]-3-methylnaphthalene-1,4-diol] | increase | decrease | increase | decrease | decrease | decrease | 
